US20260226048A1, “MULTI-CYCLIC IRAK AND FLT3 INHIBITING COMPOUNDS AND USES THEREOF” (CHILDREN'S HOSPITAL MEDICAL CENTER, priority 2023, published 2026)
Like-named read-outs stand apart in the source and are kept apart here.

How the values were obtained:
[1] = tested on: NF-κB-inducible SEAP reporter in THP-1-Blue NF-κB cells; assay: NF-kB SEAP reporter assay in THP-1-Blue NF-κB cells; type: cell-based; conditions: 24 hours
Method in brief: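 Cells (1×10^5/well) stimulated with Pam3CSK4 (1 ng/mL) or hIL1B (1 ng/mL), then after 10-20 min given 10-point 1:10 compound dilutions from 1 μM or 3 μM for 24 h at 37° C. Secreted SEAP in supernatant read with QUANTI-Blue (30-60 min, 37° C) at 620 nm.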

FLT3 = target: T1, FLT3 (Homo sapiens, UniProt P36888); assay: Reaction Biology NanoBRET target engagement assay in HEK-293 cells, FLT3; type: cell-based; conditions: live HEK-293 cells transfected with Kinase-NanoLuc fusion, 1 hour
T1 sequence (P36888 27-993): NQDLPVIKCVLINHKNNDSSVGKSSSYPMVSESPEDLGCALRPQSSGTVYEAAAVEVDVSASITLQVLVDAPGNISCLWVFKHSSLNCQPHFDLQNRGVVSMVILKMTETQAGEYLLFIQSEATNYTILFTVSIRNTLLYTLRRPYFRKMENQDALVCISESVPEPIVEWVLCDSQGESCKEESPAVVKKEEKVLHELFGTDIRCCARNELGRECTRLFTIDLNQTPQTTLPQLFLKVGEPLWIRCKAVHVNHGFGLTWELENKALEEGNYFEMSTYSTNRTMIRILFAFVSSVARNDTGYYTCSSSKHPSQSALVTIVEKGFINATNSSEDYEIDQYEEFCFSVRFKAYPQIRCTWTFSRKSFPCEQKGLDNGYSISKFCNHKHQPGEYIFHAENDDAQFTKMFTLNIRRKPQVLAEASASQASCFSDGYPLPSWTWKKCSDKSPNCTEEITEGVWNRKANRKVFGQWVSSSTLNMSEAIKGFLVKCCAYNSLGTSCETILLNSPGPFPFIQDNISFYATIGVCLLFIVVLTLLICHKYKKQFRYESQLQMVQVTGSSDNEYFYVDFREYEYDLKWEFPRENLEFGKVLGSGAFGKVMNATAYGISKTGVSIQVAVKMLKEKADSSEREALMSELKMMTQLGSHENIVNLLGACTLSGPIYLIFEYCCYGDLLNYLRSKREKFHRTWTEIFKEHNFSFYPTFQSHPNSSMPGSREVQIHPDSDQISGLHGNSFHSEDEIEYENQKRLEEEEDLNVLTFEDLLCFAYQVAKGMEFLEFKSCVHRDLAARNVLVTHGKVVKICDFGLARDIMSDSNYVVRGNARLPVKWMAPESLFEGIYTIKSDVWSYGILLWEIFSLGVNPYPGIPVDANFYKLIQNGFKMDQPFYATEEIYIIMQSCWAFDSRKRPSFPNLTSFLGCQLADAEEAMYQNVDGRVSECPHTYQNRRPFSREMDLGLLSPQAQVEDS
Excerpt: The NanoBRET assay measures kinase engagement in real time in the context of the intact cell. Unlike the previously described biochemical kinase assay methodology in Example 33, the NanoBRET assay measures the binding and activity characteristics under equilibrium conditions using full-length kinases in the presence of cellular concentrations of ATP in live, uncompromised cells. As such, the assay provides a more relevant assessment of kinase potency and selectivity that would be expected to be observed in the native cellular environment, where potency is often considerably lower than that observed in the isolated biochemical assays (Vasta, J. D. et al., (2018) Cell Chem. Biol. 25, 206-214). The assay uses a Kinase-NanoLuc® fusion vector expressing a kinase protein to which a luciferase tag has been added, a cell-permeant fluorescent NanoBRET™ tracer, a NanoLuc® substrate, and an extracellular NanoLuc® inhibitor. Upon expression of the luciferase-tagged kinase, cells will produce a strong BRET signal only in the presence of the NanoBRET™ tracer. The extracellular NanoLuc® inhibitor ensures that the BRET signal observed emanates only from live cells. Because the BRET signal has tight distance constraints, addition of the test compound will decrease the BRET signal if the compound competes with the NanoBRET™ tracer for binding to the kinase domain. Under the appropriate tracer conditions established by the manufacturer, quantitative intracellular affinity and relative potency can then be determined using Mass Action model equations.
HEK-293 cells were purchased from ATCC. FuGENEHD Transfection Reagent, Kinase-NanoLucfusion plasmids, Transfection Carrier DNA, NanoBRETTracers and dilution buffer, NanoBRETNano-Glo Substrate, Extracellular NanoLucInhibitor were obtained from Promega.
Assays were conducted following Promega assay protocol with some modifications. HEK-293 Cells were transiently transfected with Kinase-NanoLucFusion Vector DNA by FuGENEHD Transfection Reagent. Testing compounds were delivered into 384 well assay plate by Echo 550 (LabcyteInc, Sunnyvale, CA). Transfected cells were harvested and mixed with NanoBRETTracer Reagent and dispensed into 384 well plates and incubated at 37° C. in 5% C02 cell culture incubator for 1 hour. The NanoBRETNano-Glo Substrate plus Extracellular NanoLucInhibitor Solution were added into the wells of the assay plate and incubated for 2-3 minutes at room temperature. The donor emission wavelength (460 nm) and acceptor emission wavelength (600 nm) were measured in the EnVisionplate reader. The BRET Ratios were calculated. BRET Ratio=[(Acceptor sample÷Donor sample)−(Acceptor no-tracer control÷Donor no-tracer control)]. The IC50 values of compounds were calculated with Prism GraphPad program.
• 1). Cultivate HEK-293 cells (70-80% confluence) appropriately prior to assay. Trypsinize and collect HEK-293 cells. • 2). Prepare lipid: DNA complexes as follows: • a. Prepare a 10 μg/ml solution of DNA in Opti-MEM without serum that consists of the following ratios of carrier DNA and DNA encoding NanoLuc® fusion. 9.0 μg/mL of Transfection Carrier DNA, 1.0 μg/mL of NanoLuc fusion vector DNA and 1 mL of Opti-MEM without phenol red. Mix thoroughly. • b. Add 30 μl of FuGENE HD Transfection Reagent into each milliliter of DNA mixture to form lipid: DNA complex. • c. Mix by inversion 10 times. • d. Incubate at ambient temperature for 20 minutes to allow complexes to form. • 3). In a sterile, conical tube, mix 1 part of lipid:DNA complex with 20 parts of HEK-293 cells in suspension. Mix gently by inversion 5 times. • 4). Dispense cells+lipid:DNA complex into a sterile tissue culture dish and incubate for 22-24 hours.
Each test compound is delivered from the compound source plate to the wells of 384-well white NBS plate by Echo 550.
3. Preparation of Cells with NanoBRET™ Tracer Reagent • 1). […]

[2] = THP-1-Blue NF-κB cells stimulated with Pam3CSK4 (1 ng/mL), read-out: NF-κB Pam3SCK4 IC50
[3] = THP-1-Blue NF-κB cells stimulated with hIL1B (1 ng/mL), read-out: NF-κB IL1B IC50

Row | Structure (SMILES) | IC50 [1, 2] [µM] | IC50 [1, 3] [µM] | IC50 (FLT3) [µM]
1 | F[C@H]1CCNC[C@@H]1Nc1nccc(-c2cnc3cc(OC4CC4)c(C4CC4)nn23)n1 [Compound 12a, 4-(7-cyclopropoxy-6-cyclopropylimidazo[1,2-b]pyridazin-3-yl)-N-((3S,4S)-4-fluoropiperidin-3-yl)pyrimidin-2-amine] | 0.382 | 0.22 | < 0.0005
2 | CC(O)(c1ccc2ncc(-c3ccnc(N[C@@H]4CCCNC4)n3)n2c1)C(F)(F)F (single isomer, unassigned) [Compound 23a] | 0.056 | 0.096 | 0.003
3 | COc1cc2ncc(-c3nc(N[C@H]4CNCC[C@@H]4F)ncc3F)n2nc1N1CCCS1(=O)=O [Compound 112a, 2-(3-(5-fluoro-2-(((3S,4S)-4-fluoropiperidin-3-yl)amino)pyrimidin-4-yl)-7-methoxyimidazo[1,2-b]pyridazin-6-yl)isothiazolidine 1,1-dioxide] | 0.235 | 0.355 | < 0.0005
4 | COc1cc2ncc(-c3nc(N[C@@H]4CCCNC4)ncc3F)n2nc1C1CC2(CCC2)C1 [Compound 59a, (R)-5-fluoro-4-(7-methoxy-6-(spiro[3.3]heptan-2-yl)imidazo[1,2-b]pyridazin-3-yl)-N-(piperidin-3-yl)pyrimidin-2-amine] | 0.25 | 0.323 | –
5 | COc1cc2ncc(-c3nc(N[C@H]4CNCC[C@@H]4F)ncc3F)n2nc1C1CC(F)(F)C1 [Compound 49a, 4-(6-(3,3-difluorocyclobutyl)-7-methoxyimidazo[1,2-b]pyridazin-3-yl)-5-fluoro-N-((3S,4S)-4-fluoropiperidin-3-yl)pyrimidin-2-amine] | 0.079 | 0.089 | < 0.0005
6 | COc1cc2ncc(-c3nc(N[C@H]4CNCC[C@@H]4F)ncc3F)n2nc1C(C)(C)O [Compound 45a, 2-(3-(5-fluoro-2-(((3S,4S)-4-fluoropiperidin-3-yl)amino)pyrimidin-4-yl)-7-methoxyimidazo[1,2-b]pyridazin-6-yl)propan-2-ol] | 0.204 | 0.351 | 0.044
7 | COc1cc2ncc(-c3nc(N[C@H]4CNCC[C@@H]4F)ncc3F)n2nc1C1CC2(CCC2)C1 [Compound 60a, 5-fluoro-N-((3S,4S)-4-fluoropiperidin-3-yl)-4-(7-methoxy-6-(spiro[3.3]heptan-2-yl)imidazo[1,2-b]pyridazin-3-yl)pyrimidin-2-amine] | 0.156 | 0.2 | –
8 | COc1cc2ncc(-c3nc(N[C@H]4CNCC[C@@H]4F)ncc3F)n2nc1C1COC1 [Compound 92a, 5-fluoro-N-((3S,4S)-4-fluoropiperidin-3-yl)-4-(7-methoxy-6-(oxetan-3-yl)imidazo[1,2-b]pyridazin-3-yl)pyrimidin-2-amine] | 0.053 | 0.06 | 0.004
9 | CC(O)(c1ccc2ncc(-c3cncc(N[C@@H]4CCCNC4)n3)n2c1)C(F)(F)F (single isomer, unassigned) [Compound 28a] | 0.096 | 0.149 | 2.96
10 | CC(C)(O)c1ccc2ncc(-c3nc(N[C@@H]4CCCNC4)ncc3F)n2c1 [Compound 48a, (R)-2-(3-(5-fluoro-2-(piperidin-3-ylamino)pyrimidin-4-yl)imidazo[1,2-a]pyridin-6-yl)propan-2-ol] | 0.056 | 0.096 | 0.141
11 | CC(O)(c1ccc2ncc(-c3cncc(N[C@H]4CNCC[C@@H]4F)n3)n2c1)C(F)(F)F (single isomer, unassigned) [Compound 31a] | 0.138 | 0.1 | 1.81
12 | FC(F)COc1cc2ncc(-c3ccnc(N[C@H]4CNCC[C@@H]4F)n3)n2nc1C1CC1 [Compound 4a, 4-(6-cyclopropyl-7-(2,2-difluoroethoxy)imidazo[1,2-b]pyridazin-3-yl)-N-((3 S,4S)-4-fluoropiperidin-3-yl)pyrimidin-2-amine] | 0.184 | 0.166 | 0.004
13 | CC(C)(O)c1ccc2ncc(-c3nc(N[C@H]4CNCC[C@@H]4F)ncc3F)n2c1 [Compound 46a, 2-(3-(5-fluoro-2-(((3S,4S)-4-fluoropiperidin-3-yl)amino)pyrimidin-4-yl)imidazo[1,2-a]pyridin-6-yl)propan-2-ol] | 0.103 | 0.112 | 0.102
14 | CC(O)(c1ccc2ncc(-c3ccnc(N[C@@H]4CCCNC4)n3)n2c1)C(F)(F)F (single isomer, unassigned) [Compound 22a] | – | – | 0.038
15 | COc1cc2ncc(-c3nc(N[C@H]4CNCC[C@@H]4F)ncc3F)n2nc1C1CC1 [Compound 1a, 4-(6-cyclopropyl-7-methoxyimidazo[1,2-b]pyridazin-3-yl)-5-fluoro-N-((3S,4S)-4-fluoropiperidin-3-yl)pyrimidin-2-amine] | 0.017 | 0.022 | 0.001
16 | CC(O)(c1ccc2ncc(-c3ccnc(N[C@H]4CNCC[C@@H]4F)n3)n2c1)C(F)(F)F (single isomer, unassigned) [Compound 25a] | 0.193 | 0.152 | 0.04
17 | CC(C)(O)c1cn2c(-c3nc(N[C@H]4CNCC[C@@H]4F)ncc3F)cnc2cn1 [Compound 100a, 2-(3-(5-fluoro-2-(((3S,4S)-4-fluoropiperidin-3-yl)amino)pyrimidin-4-yl)imidazo[1,2-a]pyrazin-6-yl)propan-2-ol] | 0.069 | 0.083 | 4.25
18 | COc1cc2ncc(-c3nc(N[C@H]4CNC[C@@H]4F)ncc3F)n2nc1N1CCCS1(=O)=O [Compound 111a, 2-(3-(5-fluoro-2-(((3S,4S)-4-fluoropyrrolidin-3-yl)amino)pyrimidin-4-yl)-7-methoxyimidazo[1,2-b]pyridazin-6-yl)isothiazolidine 1,1-dioxide] | – | – | 0.077
